Source: the supplement of paper PMC11061612

Assays:
Assay in all cases: combination Emax (second highest fraction inhibited in the dose matrix, 72 h); higher = more inhibition; extreme values may be limits of the assay
A704 (Kidney Carcinoma) = tested on: A704 (Kidney Carcinoma)
In short: (§1)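 Cell lines in DMEM/F12 or RPMI with 10% FBS were plated in 1536-well plates, held 24 hours at 37°C, 5% CO2, then given two-drug dose matrices for 72 hours (DMSO typically 0.2%). Viability was read by CellTiter-Glo 2.0 luminescence and scaled as inhibition from 0 (vehicle wells) to 1 (blank wells). Combination Emax is the second-highest inhibition in the matrix; Bliss excess is observed combination effect minus expected EA + EB − EA·EB, EA and EB being single-agent effects.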

[1] = tested on: BV-173 (Chronic Myelogenous Leukemia)
In short: as §1

[2] = tested on: EBC-1 (Squamous Cell Lung Carcinoma)
In short: as §1

EW-13 (Ewing's Sarcoma) = tested on: EW-13 (Ewing's Sarcoma)
In short: as §1

EW-3 (Ewing's Sarcoma) = tested on: EW-3 (Ewing's Sarcoma)
In short: as §1

GI-1 (Glioblastoma) = tested on: GI-1 (Glioblastoma)
In short: as §1

GOTO (Neuroblastoma) = tested on: GOTO (Neuroblastoma)
In short: as §1

[3] = tested on: HC-1 (Other Blood Carcinomas)
In short: as §1

[4] = tested on: JHH-7 (Hepatocellular Carcinoma)
In short: as §1

[5] = tested on: KYSE-150 (Esophageal Squamous Cell Carcinoma)
In short: as §1

[6] = tested on: LC4-1 (B-Lymphoblastic Leukemia)
In short: as §1

[7] = tested on: MFE-319 (Endometrial Carcinoma)
In short: as §1

[8] = tested on: NCI-H322M (Lung Adenocarcinoma)
In short: as §1

[9] = tested on: NCI-N87 (Gastric Carcinoma)
In short: as §1

NH-12 (Neuroblastoma) = tested on: NH-12 (Neuroblastoma)
In short: as §1

[10] = tested on: OVISE (Ovarian Carcinoma)
In short: as §1

[11] = tested on: PF-382 (T-Lymphoblastic Leukemia)
In short: as §1

RPMI-7951 (Melanoma) = tested on: RPMI-7951 (Melanoma)
In short: as §1

[12] = tested on: SCC-9 (Oral Cavity Carcinoma)
In short: as §1

[13] = tested on: TGBC11TKB (Gastric Carcinoma)
In short: as §1

| SMILES | combination Emax (A704 (Kidney Carcinoma)) | combination Emax [1] | combination Emax [2] | combination Emax (EW-13 (Ewing's Sarcoma)) | combination Emax (EW-3 (Ewing's Sarcoma)) | combination Emax (GI-1 (Glioblastoma)) | combination Emax (GOTO (Neuroblastoma)) | combination Emax [3] | combination Emax [4] | combination Emax [5] | combination Emax [6] | combination Emax [7] | combination Emax [8] | combination Emax [9] | combination Emax (NH-12 (Neuroblastoma)) | combination Emax [10] | combination Emax [11] | combination Emax (RPMI-7951 (Melanoma)) | combination Emax [12] | combination Emax [13] |
| --- | --- | --- | --- | --- | --- | --- | --- | --- | --- | --- | --- | --- | --- | --- | --- | --- | --- | --- | --- | --- |
| COc1nnc2ccc(N3CCC(c4ccc(OCCN5CCN(C)C(=O)[C@H]5C)cc4)CC3)nn12 [AZD5153] + Cn1cnc2c(F)c(Nc3ccc(Br)cc3Cl)c(C(=O)NOCCO)cc21 [Selumetinib] (first compound max 1 µM, 7x7, partner max 10 µM) | 0.855 | 0.936 | 1 | 0.315 | 0.629 | 0.705 | 0.822 | 0.506 | 0.512 | 0.661 | 0.975 | 0.579 | 0.726 | 0.567 | 0.729 | 0.626 | 0.903 | 0.677 | 0.75 | 0.683 |
| CCc1c2c(nc3ccc(O)cc13)-c1cc3c(c(=O)n1C2)COC(=O)[C@]3(O)CC [SN-38] + CN(C)CCCOc1ccc(-c2ccc3ncc4c(c3c2)n(C2CCOCC2)c(=O)n4C)cn1 [AZD0156] (first compound max 0.3 µM, 7x7, partner max 1 µM) | 0.504 | 0.981 | 0.863 | 0.734 | 0.838 | 0.974 | 0.861 | 1 | 0.208 | 0.732 | 0.932 | 0.243 | 0.811 | 0.697 | 0.838 | 0.181 | 0.994 | 0.933 | 0.392 | 0.772 |
| NC1(C(=O)N[C@@H](CCO)c2ccc(Cl)cc2)CCN(c2ncnc3[nH]ccc23)CC1 [Capivasertib] + C[C@@H]1COCCN1C2=NC(=NC(=C2)C3(CC3)[S@](=N)(=O)C)C4=C5C=CNC5=NC=C4 [AZD6738] (first compound max 10 µM, 7x7, partner max 10 µM) | 0.524 | 0.956 | 0.601 | 0.67 | 0.87 | 0.944 | 0.948 | 0.749 | 0.39 | 0.681 | 0.949 | 0.787 | 0.81 | 0.781 | 0.832 | 0.694 | 0.974 | 0.892 | 0.412 | 0.778 |
| COc1nnc2ccc(N3CCC(c4ccc(OCCN5CCN(C)C(=O)[C@H]5C)cc4)CC3)nn12 [AZD5153] + C=CCn1c(=O)c2cnc(Nc3ccc(N4CCN(C)CC4)cc3)nc2n1-c1cccc(C(C)(C)O)n1 [AZD1775] (first compound max 1 µM, partner max 1 µM) | 0.652 | 0.931 | 0.802 | 0.407 | 0.622 | 0.973 | 0.919 | 0.948 | 0.316 | 0.666 | 0.941 | 0.741 | 0.841 | 0.717 | 0.91 | 0.767 | 0.999 | 0.802 | 0.518 | 0.831 |
| COc1cccc(OCCCN)c1-c1cc(Nc2cnc(C#N)cn2)n[nH]1 [Prexasertib] + C=CCn1c(=O)c2cnc(Nc3ccc(N4CCN(C)CC4)cc3)nc2n1-c1cccc(C(C)(C)O)n1 [AZD1775] (first compound max 1 µM, partner max 1 µM) | 0.517 | 0.994 | 0.666 | 0.611 | 0.732 | 0.994 | 0.905 | 1 | 0.765 | 0.866 | 0.983 | 0.807 | 0.974 | 0.797 | 0.944 | 0.763 | 0.942 | 0.991 | 0.482 | 0.991 |
| COc1nnc2ccc(N3CCC(c4ccc(OCCN5CCN(C)C(=O)[C@H]5C)cc4)CC3)nn12 [AZD5153] + Cc1c2c(nn1C)CSCc1cc(n(C)n1)CSc1cc(c3ccccc3c1)OCCCc1c(C(=O)O)n(C)c3c-2c(Cl)ccc13 [AZD5991] (first compound max 1 µM, 7x7, partner max 1 µM) | 0.545 | 0.936 | 0.862 | 0.68 | 0.908 | 0.961 | 0.919 | 0.753 | 0.291 | 0.582 | 1 | 0.985 | 0.539 | 0.551 | 0.672 | 0.633 | 0.986 | 0.825 | 0.601 | 0.789 |
| NC1(C(=O)N[C@@H](CCO)c2ccc(Cl)cc2)CCN(c2ncnc3[nH]ccc23)CC1 [Capivasertib] + CC(C)n1c(=O)n(C)c2cnc3cc(F)c(-c4ccc(OCCCN5CCCCC5)nc4)cc3c21 [AZD1390] (first compound max 10 µM, 7x7, partner max 0.3 µM) | 0.314 | 0.51 | 0.322 | 0.28 | 0.258 | 0.658 | 0.433 | 0.508 | 0.315 | 0.375 | 0.465 | 0.368 | 0.313 | 0.674 | 0.363 | 0.387 | 0.612 | 0.662 | 0.26 | 0.13 |
| Cc1cc2ncnn2cc1Nc1ncc2c(n1)n(C1CCOCC1)c(=O)n2C [AZD7648] + CCN(CCO)CCCOc1ccc2c(Nc3cc(CC(=O)Nc4cccc(F)c4)[nH]n3)ncnc2c1 [AZD2811] (first compound max 10 µM, 7x7, partner max 1 µM) | 0.247 | 0.964 | 0.18 | 0.291 | 0.397 | 0.425 | 0.491 | 0.737 | 0.296 | 0.658 | 0.839 | 0.278 | 0.352 | 0.44 | 0.667 | 0.308 | 0.851 | 0.476 | 0.342 | 0.327 |
| C=CCn1c(=O)c2cnc(Nc3ccc(N4CCN(C)CC4)cc3)nc2n1-c1cccc(C(C)(C)O)n1 [AZD1775] + O=C(c1cc(Cc2n[nH]c(=O)c3ccccc23)ccc1F)N1CCN(C(=O)C2CC2)CC1 [Olaparib] (first compound max 1 µM, partner max 10 µM) | 0.462 | 0.96 | 0.272 | 0.622 | 0.661 | 0.917 | 0.771 | 0.983 | 0.293 | 0.493 | 0.92 | 0.619 | 0.666 | 0.711 | 0.906 | 0.619 | 0.976 | 0.766 | 0.265 | 0.794 |
| CN(CCO)CC[C@H](CSc1ccccc1)Nc1ccc(S(=O)(=O)NC(=O)c2ccc(N3CCC([C@@H](O)c4ccccc4-c4ccc(Cl)cc4)CC3)cc2)cc1S(=O)(=O)C(F)(F)F [AZD4320] + C=CCn1c(=O)c2cnc(Nc3ccc(N4CCN(C)CC4)cc3)nc2n1-c1cccc(C(C)(C)O)n1 [AZD1775] (first compound max 1 µM, partner max 1 µM) | 0.781 | 0.958 | 0.975 | 0.665 | 0.962 | 1 | 0.855 | 1 | 0.524 | 0.432 | 1 | 0.944 | 0.851 | 0.888 | 0.98 | 0.939 | 1 | 0.879 | 0.281 | 0.964 |
| CN(CCO)CC[C@H](CSc1ccccc1)Nc1ccc(S(=O)(=O)NC(=O)c2ccc(N3CCC([C@@H](O)c4ccccc4-c4ccc(Cl)cc4)CC3)cc2)cc1S(=O)(=O)C(F)(F)F [AZD4320] + Cc1cc2ncnn2cc1Nc1ncc2c(n1)n(C1CCOCC1)c(=O)n2C [AZD7648] (first compound max 1 µM, 7x7, partner max 10 µM) | 0.563 | 0.961 | 0.947 | 0.672 | 0.958 | 0.457 | 0.633 | 0.58 | 0.344 | 0.478 | 1 | 0.264 | 0.254 | 0.544 | 0.927 | 0.779 | 0.983 | 0.516 | 0.306 | 0.237 |
| Cn1cnc2c(F)c(Nc3ccc(Br)cc3Cl)c(C(=O)NOCCO)cc21 [Selumetinib] + CC(C)n1c(=O)n(C)c2cnc3cc(F)c(-c4ccc(OCCCN5CCCCC5)nc4)cc3c21 [AZD1390] (first compound max 10 µM, 7x7, partner max 0.3 µM) | 0.246 | 0.621 | 0.934 | 0.0488 | 0.104 | 0.216 | 0.283 | 0.456 | 0.262 | 0.259 | 0.158 | 0.154 | 0.527 | 0.3 | 0.482 | 0.184 | 0.211 | 0.307 | 0.379 | 0.507 |
| CC(=O)c1c(C)c2cnc(Nc3ccc(N4CCNCC4)cn3)nc2n(C2CCCC2)c1=O [Palbociclib] + Cn1cnc2c(F)c(Nc3ccc(Br)cc3Cl)c(C(=O)NOCCO)cc21 [Selumetinib] (first compound max 10 µM, 7x7, partner max 10 µM) | 0.705 | 0.733 | 0.944 | 0.113 | 0.45 | 0.0397 | 0.819 | 0.59 | 0.323 | 0.684 | 0.614 | 0.31 | 0.665 | 0.498 | 0.592 | 0.271 | 0.761 | 0.546 | 0.397 | 0.436 |
